Experimental findings from US20060281768A1, “THIENOPYRIMIDINE AND THIENOPYRIDINE KINASE MODULATORS” (priority 2005, published 2006) are described below.

Test [1] concerns the target T1, FLT3 571-993 (Homo sapiens, UniProt P36888).
T1 construct: 10 nM FLT3 571-993, 20 ug/mL poly Glu4Tyr
T1 sequence (P36888 571-993): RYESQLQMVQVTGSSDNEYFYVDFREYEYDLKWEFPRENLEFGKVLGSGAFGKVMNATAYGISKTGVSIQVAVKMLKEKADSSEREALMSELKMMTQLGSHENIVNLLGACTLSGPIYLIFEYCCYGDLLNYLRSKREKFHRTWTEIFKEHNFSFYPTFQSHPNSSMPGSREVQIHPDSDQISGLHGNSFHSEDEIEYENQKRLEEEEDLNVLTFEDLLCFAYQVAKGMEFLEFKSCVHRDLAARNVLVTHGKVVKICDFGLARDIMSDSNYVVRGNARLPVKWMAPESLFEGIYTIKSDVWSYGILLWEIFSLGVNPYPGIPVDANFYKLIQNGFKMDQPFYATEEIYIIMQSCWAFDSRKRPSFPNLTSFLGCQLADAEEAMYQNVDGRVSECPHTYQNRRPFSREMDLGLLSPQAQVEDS
Put plainly: FLT3 Fluorescence Polarization Kinase Assay. In kind it is biochemical. To be noted: 10 nM FLT3 571-993, 150 uM ATP, 30 minutes; uncertainty +10%. How it is done: The FLT3 FP assay utilizes the fluorescein-labeled phosphopeptide and the anti-phosphotyrosine antibody included in the Panvera Phospho-Tyrosine Kinase Kit (Green) supplied by Invitrogen. When FLT3 phosphorylates poly Glu4Tyr, the fluorescein-labeled phosphopeptide is displaced from the anti-phosphotyrosine antibody by the phosphorylated poly Glu4Tyr, thus decreasing the FP value. The FLT3 kinase reaction is incubated at room temperature for 30 minutes under the following conditions: 10 nM FLT3 571-993, 20 ug/mL poly Glu4Tyr, 150 uM ATP, 5mM MgCl2, 1% compound in DMSO. The kinase reaction is stopped with the addition of EDTA. The fluorescein-labeled phosphopeptide and the anti-phosphotyrosine antibody are added and incubated for 30 minutes at room temperature.
All data points are an average of triplicate samples. Inhibition and IC50 data analysis was done with GraphPad Prism using a non-linear regression fit with a multiparamater, sigmoidal dose-response (variable slope) equation.
A general note: Polarisation of emitted light reports the rotation of a fluorescent probe.

The subject of test [2] is MV4-11 cells. Put plainly: Growth inhibition of MV4-11 cells (CellTiterGlo). In kind it is cell-based. To be noted: Homo sapiens, 72 hours, uncertainty +20%. How it is done:
FLT3 specific growth inhibition was measured in the leukemic cell line MV4-11 (ATCC Number: CRL-9591). […] MV4-11 cells cannot grow and survive without active FLT31TD.
To measure proliferation inhibition by test compounds the luciferase based CellTiterGlo reagent (Promega) was used. Cells are plated at 10,000 cells per well in 100ul of in RPMI media containing penn/strep, 10% FBS and lng/ml GM-CSF or 1 ng/ml IL-3 for MV4-11 and Baf3 cells respectively.
Compound dilutions or 0.1% DMSO (vehicle control) are added to cells and the cells are allowed to grow for 72 hours at standard cell growth conditions (37° C., 5% CO2). Total cell growth is quantified as the difference in luminescent counts (relative light units, RLU) of cell number at Day 0 compared to total cell number at Day 3 (72 hours of growth and/or compound treatment). One hundred percent inhibition of growth is defined as an RLU equivalent to the Day 0 reading. Zero percent inhibition is defined as the RLU signal for the DMSO vehicle control at Day 3 of growth. All data points are an average of triplicate samples. […] Inhibition and IC50 data analysis was done with GraphPad Prism using a non-linear regression fit with a multiparamater, sigmoidal dose-response (variable slope) equation.
MV-411 cells expressed the FLT3 internal tandem duplication mutation, and thus were entirely dependent upon FLT3 activity for growth. […] In contrast, the Baf3 cell proliferations is driven by the cytokine IL-3 and these cells are used as a non-specific toxicity control for test compounds.
On the technique in general: Cellular ATP, detected with luciferase, serves as a proxy for viable cell number.

Where only a bound is given, the exact number is not on record here.

For the compound `CC(C)Oc1ccc(NC(=O)NC2CCN(c3ncnc4sccc34)C2)cc1` (stereo not drawn) [Compound 10, 1-(4-Isopropoxy-phenyl)-3-(1-thieno[2,3-d]pyrimidin-4-yl-pyrrolidin-3-yl)-urea], the IC50 – broadly, the concentration that inhibits the measured activity by half – in test [1] was found to be 365 nM; in test [2], 3.6 µM.
Turning to `O=C(Nc1ccc(OC2CCC2)nc1)NC1CCN(c2ncnc3ccsc23)CC1` [Compound 20, 1-(6-Cyclobutoxy-pyridin-3-yl)-3-(1-thieno [3,2-d]pyrimidin-4-yl-piperidin-4-yl)-urea], half-maximal inhibition in test [2] (IC50) required 1.5 µM.
Turning to `CC(C)Oc1ccc(NC(=O)OC2CCN(c3ncnc4sccc34)CC2)cc1` [Compound 2, (4-Isopropoxy-phenyl)-carbamic acid 1-thieno[2,3-d]pyrimidin-4-yl-piperidin-4-yl ester], the IC50 is 2090 nM in test [1] and greater than 10 µM in test [2].
For `O=C(Nc1ccc(N2CCOCC2)cc1)NC1CCN(c2ncnc3ccsc23)CC1` [Compound 24, 1-(4-Morpholin-4-yl-phenyl)-3-(1-thieno[3,2-d]pyrimidin-4-yl-piperidin-4-yl)-urea], the IC50 in test [2] was greater than 5 µM.
For the compound `O=C(Nc1ccc(Oc2ccccc2)cc1)NC1CCN(c2ncnc3ccsc23)CC1` [Compound 22, 1-(4-Phenoxy-phenyl)-3-(1-thieno [3,2-d]pyrimidin-4-yl-piperidin-4-yl)-urea], in test [2], the IC50 amounted to 3.8 µM.
Regarding `CC(C)c1ccc(NC(=O)OC2CCN(c3ncnc4sccc34)C2)cc1` (stereo not drawn) [Compound 3, (4-Isopropyl-phenyl)-carbamic acid 1-thieno[2,3-d]pyrimidin-4-yl-pyrrolidin-3-yl ester], the values for the IC50 in test [1] and in test [2] were 227 nM and 2.4 µM, respectively.
In test [2], `O=C(Nc1ccc(C2CCCCC2)cc1)NC1CCN(c2ncnc3ccsc23)CC1` [Compound 21, 1-(4-Cyclohexyl-phenyl)-3-(1-thieno [3,2-d]pyrimidin-4-yl-piperidin-4-yl)-urea] yielded an IC50 of 1.4 µM.
As to `CC(C)Oc1ccc(NC(=O)OC2CCN(c3ncnc4ccsc34)CC2)cc1` [Compound 8, (4-Isopropoxy-phenyl)-carbamic acid 1-thieno[3,2-d]pyrimidin-4-yl-piperidin-4-yl ester], the results for the IC50 in test [1] and in test [2] were 3030 nM and 3.6 µM, respectively.
As for `CC(C)Oc1ccc(NC(=O)OC2CCN(c3ncnc4ccsc34)C2)cc1` (stereo not drawn) [Compound 6, (4-Isopropoxy-phenyl)-carbamic acid 1-thieno[3,2-d]pyrimidin-4-yl-pyrrolidin-3-yl ester], the IC50 is 208 nM in test [1] and 6.5 µM in test [2].
For the compound `CC(C)c1ccc(NC(=O)OC2CCN(c3ncnc4sccc34)CC2)cc1` [Compound 1, (4-Isopropyl-phenyl)-carbamic acid 1-thieno[2,3-d]pyrimidin-4-yl-piperidin-4-yl ester], the figures for the IC50 in test [1] and in test [2] were 102 nM and 7.2 µM, respectively.
In test [2], `O=C(Nc1ccc(C2CCCCC2)cc1)NC1CCN(c2ncnc3ccsc23)C1` (stereo not drawn) [Compound 16, 1-(4-Cyclohexyl-phenyl)-3-(1-thieno [3,2-d]pyrimidin-4-yl-pyrrolidin-3-yl)-urea] came in with an IC50 of 5.2 µM.
Take `CC(C)c1ccc(NC(=O)OC2CCN(c3ncnc4ccsc34)CC2)cc1` [Compound 7, (4-Isopropyl-phenyl)-carbamic acid 1-thieno[3,2-d]pyrimidin-4-yl-piperidin-4-yl ester]: the results for the IC50 in test [1] and in test [2] were 140 nM and 4.3 µM, respectively.
For `O=C(Nc1ccc(Br)cc1)NC1CCN(c2ncnc3ccsc23)C1` (stereo not drawn) [Compound 17, 1-(4-Bromo-phenyl)-3-(1-thieno [3,2-d]pyrimidin-4-yl-pyrrolidin-3-yl)-urea], the IC50 in test [2] was found to be 1.9 µM.
Take `O=C(Nc1ccc(N2CCCC2)cc1)NC1CCN(c2ncnc3ccsc23)CC1` [Compound 23, 1-(4-Pyrrolidin-1-yl-phenyl)-3-(1-thieno [3,2-d]pyrimidin-4-yl-piperidin-4-yl)-urea]: the IC50 in test [2] is 3.9 µM.
For `CC(C)Oc1ccc(NC(=O)OC2CCN(c3ncnc4sccc34)C2)cc1` (stereo not drawn) [Compound 4, (4-Isopropoxy-phenyl)-carbamic acid 1-thieno[2,3-d]pyrimidin-4-yl-pyrrolidin-3-yl ester], the figures for the IC50 in test [1] and in test [2] were 761 nM and greater than 10 µM, respectively.
`O=C(Nc1ccc(N2CCOCC2)cc1)NC1CCN(c2ncnc3ccsc23)C1` (stereo not drawn) [Compound 14, 1-(4-Morpholin-4-yl-phenyl)-3-(1-thieno [3,2-d]pyrimidin-4-yl-pyrrolidin-3-yl)-urea] gave an IC50 in test [2] greater than 5 µM.
On the same count and under the same terms, then `O=C(Nc1ccc(N2CCOCC2)cc1)OC1CCN(c2ncnc3ccsc23)C1` (stereo not drawn) [Compound 28, (4-Morpholin-4-yl-phenyl)-carbamic acid 1-thieno[3,2-d]pyrimidin-4-yl-pyrrolidin-3-yl ester], with 2.1 µM.
`CC(C)Oc1ccc(NC(=O)NC2CCN(c3ncnc4ccsc34)C2)cc1` (stereo not drawn) [Compound 12, 1-(4-Isopropoxy-phenyl)-3-(1-thieno[3,2-d]pyrimidin-4-yl-pyrrolidin-3-yl)-urea]: the IC50 in test [1] came out at 296 nM; in test [2], 2.5 µM.
